# Experimental data reported in PubChem BioAssay AID1963421 (Molecular Pharmacology Branch, DTP, NCI, 2024).
# “And” between values parts separate entries of the source, which are not always exact repeats. Equal values may be shown once.
# Tested on: 519858-162-T-J1-PDC complex spheroid growth, % test/control
# Assay: Anticancer human tumor 519858-162-T-J1-PDC patient-derived colon adenocarcinoma cell line growth inhibition [Asc]
# Details: for viability, T/C: stronger effect = lower value
# Procedure, shortened: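 Complex solid-tumor spheroids incorporating human endothelial and mesenchymal stem cells received single agents or combinations over half-log dilution ranges anchored to clinical Cmax.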
# [1] = curve of first compound, second compound 0.0316 µM
# [2] = curve of first compound, second compound 0.1 µM
# [3] = curve of first compound, second compound 0.316 µM
# [4] = curve of first compound, second compound 1 µM
# [5] = curve of first compound, second compound 3.16 µM
# [6] = curve of first compound, second compound 10 µM
# [7] = second compound 0.0316 µM, first compound 0.00316 µM
# [8] = second compound 0.0316 µM, first compound 0.01 µM
# [9] = second compound 0.0316 µM, first compound 0.0316 µM
# [10] = second compound 0.0316 µM, first compound 0.1 µM
# [11] = second compound 0.0316 µM, first compound 0.316 µM
# [12] = second compound 0.0316 µM, first compound 1 µM
# [13] = second compound 0.1 µM, first compound 0.00316 µM
# [14] = second compound 0.1 µM, first compound 0.01 µM
# [15] = second compound 0.1 µM, first compound 0.0316 µM
# [16] = second compound 0.1 µM, first compound 0.1 µM
# [17] = second compound 0.1 µM, first compound 0.316 µM
# [18] = second compound 0.1 µM, first compound 1 µM
# [19] = second compound 0.316 µM, first compound 0.00316 µM
# [20] = second compound 0.316 µM, first compound 0.01 µM
# [21] = second compound 0.316 µM, first compound 0.0316 µM
# [22] = second compound 0.316 µM, first compound 0.1 µM
# [23] = second compound 0.316 µM, first compound 0.316 µM
# [24] = second compound 0.316 µM, first compound 1 µM
# [25] = second compound 1 µM, first compound 0.00316 µM
# [26] = second compound 1 µM, first compound 0.01 µM
# [27] = second compound 1 µM, first compound 0.0316 µM
# [28] = second compound 1 µM, first compound 0.1 µM
# [29] = second compound 1 µM, first compound 0.316 µM
# [30] = second compound 1 µM, first compound 1 µM
# [31] = second compound 3.16 µM, first compound 0.00316 µM
# [32] = second compound 3.16 µM, first compound 0.01 µM
# [33] = second compound 3.16 µM, first compound 0.0316 µM
# [34] = second compound 3.16 µM, first compound 0.1 µM
# [35] = second compound 3.16 µM, first compound 0.316 µM
# [36] = second compound 3.16 µM, first compound 1 µM
# [37] = second compound 10 µM, first compound 0.00316 µM
# [38] = second compound 10 µM, first compound 0.01 µM
# [39] = second compound 10 µM, first compound 0.0316 µM
# [40] = second compound 10 µM, first compound 0.1 µM
# [41] = second compound 10 µM, first compound 0.316 µM
# [42] = second compound 10 µM, first compound 1 µM
# 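Also: seven day drug exposure begun three days after spheroid seeding.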
# 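For viability, T/C in this document: 100% = DMSO vehicle wells and lower values mean less viable spheroid.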
compound,measurement,setting,value
O=C(c1ccc(F)c(F)c1Nc1ccc(I)cc1F)N1CC(O)([C@@H]2CCCCN2)C1 + Cc1c(S(C)(=O)=O)c(-c2cc(F)cc(N3CCN(c4ccc(NS(=O)(=O)c5ccc(NC(CCN6CCC(C(=O)OCCCP(=O)(O)O)CC6)CSc6ccccc6)c(S(=O)(=O)C(F)(F)F)c5)cc4)CC3)c2)c(-c2ccc(Cl)cc2)n1C(C)C,IC50,[1],283 nM
same,IC50,[2],212 nM
same,IC50,[3],164 nM
same,IC50,[4],232 nM
same,IC50,[5],235 nM
same,IC50,[6],122 nM
same,"viability, T/C",[7],113%
same,"viability, T/C",[8],84.2%
same,"viability, T/C",[9],78.6%
same,"viability, T/C",[10],115%
same,"viability, T/C",[11],44.9%
same,"viability, T/C",[12],14.5%
same,"viability, T/C",[13],93.6%
same,"viability, T/C",[14],91.4%
same,"viability, T/C",[15],76.5%
same,"viability, T/C",[16],50.8%
same,"viability, T/C",[17],54.6%
same,"viability, T/C",[18],18.9%
same,"viability, T/C",[19],81.8%
same,"viability, T/C",[20],92.2%
same,"viability, T/C",[21],110%
same,"viability, T/C",[22],63.8%
same,"viability, T/C",[23],39.2%
same,"viability, T/C",[24],24.1%
same,"viability, T/C",[25],108%
same,"viability, T/C",[26],92.1%
same,"viability, T/C",[27],72.5%
same,"viability, T/C",[28],54.7%
same,"viability, T/C",[29],66%
same,"viability, T/C",[30],19.5%
same,"viability, T/C",[31],61.8%
same,"viability, T/C",[32],82.7%
same,"viability, T/C",[33],60.3%
same,"viability, T/C",[34],72%
same,"viability, T/C",[35],43.3%
same,"viability, T/C",[36],12.9%
same,"viability, T/C",[37],75.6%
same,"viability, T/C",[38],59.8%
same,"viability, T/C",[39],47.1%
same,"viability, T/C",[40],60.5%
same,"viability, T/C",[41],39.3%
same,"viability, T/C",[42],9.69%
NC(=O)C(=Cn1cnc(-c2cc(C(F)(F)F)cc(C(F)(F)F)c2)n1)c1cncnc1,"viability, T/C",compound 0.000949 µM,106% and 86.6% and 101%
same,"viability, T/C",compound 0.003 µM,105% and 110% and 63.5%
same,"viability, T/C",compound 0.00949 µM,101% and 62.7% and 81.4%
same,"viability, T/C",compound 0.03 µM,87.2% and 69% and 97.2%
same,"viability, T/C",compound 0.0949 µM,89.4% and 72.2% and 65.5%
same,"viability, T/C",compound 0.3 µM,72.1% and 90.1% and 82.9%
same,IC50,curve of compound,> 300 nM
CCN1CCN(Cc2ccc(Nc3ncc(F)c(-c4cc(F)c5nc(C)n(C(C)C)c5c4)n3)nc2)CC1 + Cc1c(S(C)(=O)=O)c(-c2cc(F)cc(N3CCN(c4ccc(NS(=O)(=O)c5ccc(NC(CCN6CCC(C(=O)OCCCP(=O)(O)O)CC6)CSc6ccccc6)c(S(=O)(=O)C(F)(F)F)c5)cc4)CC3)c2)c(-c2ccc(Cl)cc2)n1C(C)C,IC50,[1],> 1000 nM
same,IC50,[2],> 1000 nM
same,IC50,[3],> 1000 nM
same,IC50,[4],> 1000 nM
same,IC50,[5],> 1000 nM
same,IC50,[6],> 1000 nM
same,"viability, T/C",[7],124%
same,"viability, T/C",[8],106%
same,"viability, T/C",[9],62.9%
same,"viability, T/C",[10],92%
same,"viability, T/C",[11],84.8%
same,"viability, T/C",[12],72.3%
same,"viability, T/C",[13],109%
same,"viability, T/C",[14],95.8%
same,"viability, T/C",[15],89.2%
same,"viability, T/C",[16],86.3%
same,"viability, T/C",[17],79.5%
same,"viability, T/C",[18],112%
same,"viability, T/C",[19],119%
same,"viability, T/C",[20],109%
same,"viability, T/C",[21],98.3%
same,"viability, T/C",[22],60.5%
same,"viability, T/C",[23],95.6%
same,"viability, T/C",[24],69.7%
same,"viability, T/C",[25],87.4%
same,"viability, T/C",[26],76%
same,"viability, T/C",[27],62.6%
same,"viability, T/C",[28],79%
same,"viability, T/C",[29],75.2%
same,"viability, T/C",[30],56.4%
same,"viability, T/C",[31],90.5%
same,"viability, T/C",[32],68.6%
same,"viability, T/C",[33],101%
same,"viability, T/C",[34],73.7%
same,"viability, T/C",[35],67%
same,"viability, T/C",[36],57.2%
same,"viability, T/C",[37],77.7%
same,"viability, T/C",[38],61.1%
same,"viability, T/C",[39],62.6%
same,"viability, T/C",[40],72.8%
same,"viability, T/C",[41],63.3%
same,"viability, T/C",[42],68%
C=CC(=O)N1CCN(c2nc(=O)n(-c3c(C)ccnc3C(C)C)c3nc(-c4c(O)cccc4F)c(F)cc23)C(C)C1 (stereo not drawn) + CCN1C(C(=O)NC23CCC(C(=O)O)(CC2)CC3)C(c2cccc(Cl)c2F)C2(C(=O)Nc3cc(Cl)ccc32)C12CCCCC2,IC50,"curve of first compound, second compound 0.00949 µM",> 10000 nM
same,IC50,"curve of first compound, second compound 0.03 µM",> 10000 nM
same,IC50,"curve of first compound, second compound 0.0949 µM",> 10000 nM
same,IC50,"curve of first compound, second compound 0.3 µM",> 10000 nM
same,IC50,"curve of first compound, second compound 0.949 µM",> 10000 nM
same,IC50,"curve of first compound, second compound 3 µM",> 10000 nM
same,"viability, T/C","second compound 0.00949 µM, first compound 0.0316 µM",147%
same,"viability, T/C","second compound 0.00949 µM, first compound 0.1 µM",110%
same,"viability, T/C","second compound 0.00949 µM, first compound 0.316 µM",97.8%
same,"viability, T/C","second compound 0.00949 µM, first compound 1 µM",108%
same,"viability, T/C","second compound 0.00949 µM, first compound 3.16 µM",99.4%
same,"viability, T/C","second compound 0.00949 µM, first compound 10 µM",82%
same,"viability, T/C","second compound 0.03 µM, first compound 0.0316 µM",112%
same,"viability, T/C","second compound 0.03 µM, first compound 0.1 µM",87.7%
same,"viability, T/C","second compound 0.03 µM, first compound 0.316 µM",115%
same,"viability, T/C","second compound 0.03 µM, first compound 1 µM",91.9%
same,"viability, T/C","second compound 0.03 µM, first compound 3.16 µM",75.2%
same,"viability, T/C","second compound 0.03 µM, first compound 10 µM",79.7%
same,"viability, T/C","second compound 0.0949 µM, first compound 0.0316 µM",92.7%
same,"viability, T/C","second compound 0.0949 µM, first compound 0.1 µM",106%
same,"viability, T/C","second compound 0.0949 µM, first compound 0.316 µM",85.3%
same,"viability, T/C","second compound 0.0949 µM, first compound 1 µM",99.5%
same,"viability, T/C","second compound 0.0949 µM, first compound 3.16 µM",89.6%
same,"viability, T/C","second compound 0.0949 µM, first compound 10 µM",87.8%
same,"viability, T/C","second compound 0.3 µM, first compound 0.0316 µM",88.7%
same,"viability, T/C","second compound 0.3 µM, first compound 0.1 µM",89.3%
same,"viability, T/C","second compound 0.3 µM, first compound 0.316 µM",112%
same,"viability, T/C","second compound 0.3 µM, first compound 1 µM",90%
same,"viability, T/C","second compound 0.3 µM, first compound 3.16 µM",106%
same,"viability, T/C","second compound 0.3 µM, first compound 10 µM",116%
same,"viability, T/C","second compound 0.949 µM, first compound 0.0316 µM",114%
same,"viability, T/C","second compound 0.949 µM, first compound 0.1 µM",78.7%
same,"viability, T/C","second compound 0.949 µM, first compound 0.316 µM",111%
same,"viability, T/C","second compound 0.949 µM, first compound 1 µM",70.8%
same,"viability, T/C","second compound 0.949 µM, first compound 3.16 µM",86.1%
same,"viability, T/C","second compound 0.949 µM, first compound 10 µM",70%
same,"viability, T/C","second compound 3 µM, first compound 0.0316 µM",86.9%
same,"viability, T/C","second compound 3 µM, first compound 0.1 µM",81.7%
same,"viability, T/C","second compound 3 µM, first compound 0.316 µM",87%
same,"viability, T/C","second compound 3 µM, first compound 1 µM",75.1%
same,"viability, T/C","second compound 3 µM, first compound 3.16 µM",74.9%
same,"viability, T/C","second compound 3 µM, first compound 10 µM",91.7%
